Experimental data as given in paper PMC7023064, “Design, Synthesis, and Evaluation of Novel 2-Methoxyestradiol Derivatives as Apoptotic Inducers through an Intrinsic Apoptosis Pathway” (Biomolecules, 2020).

Key:
[1] = test system: MCF-7 cells; assay: Cell cycle assay (PI staining, flow cytometry); format: cell-based, human; conditions: 72 h
Description: MCF-7 cells at a density of 5 × 10^5 cells/well were seeded in 6-well plates and incubated at 37 °C in a humidified 5% CO2 incubator for 24 h. Exponentially growing cells were treated with compound 11/12a (0, 5, 10, and 20 μM) for 72 h. Then, the cells were harvested and fixed with 70% precooled ethanol at 4 °C for 12 h. Later, the cells were centrifuged and washed with cold PBS. 100 μL of RNase A was added, and then bathed in water for 30 min at 37 °C. Subsequently, cells were stained by 400 μL of propidium iodide (PI) for 30 min at 4 °C in the dark. Finally, cellular DNA was measured using a flow cytometry (FACS Calibur Becton-Dickinson, San Jose, California, USA).

Compound | melting point [°C] | cells at the G2 phase ([1]; 5 μM) [%] | cells at the G2 phase ([1]; 10 μM) [%] | cells at the G1 phase ([1]; 20 μM) [%] | cells at the G2 phase ([1]; 20 μM) [%]
COc1cc2c(cc1O)CC[C@@H]1[C@@H]2CC[C@]2(C)[C@@H](OCCCCCCCCn3c(=O)ccn([C@@H]4O[C@H](CO)[C@@H](O)[C@H]4O)c3=O)CC[C@@H]12 [Compound 11, 17 β-[8-(1-β-D-Ribofuranosyluracil-3-yl)-Octyloxy]-2-Methoxy-Estra-1,3,5(10)-Triene-3-ol] | 95 to 96 | 8.32 | 15.48 | 42.84 | 24.11
17 β-[6-(Uracil-3-yl)-Hexyloxy]-2-Methoxy-Estra-1,3,5(10)-Triene-3-ol [Compound 12a] |  | 7.97 | 13.93 | 54.41 | 22.46
